Measurements reported in ChEMBL document CHEMBL2157914, “Synthesis, anti-inflammatory and antimicrobial evaluation of novel 1-acetyl-3,5-diaryl-4,5-dihydro (1H) pyrazole derivatives bearing urea, thiourea and sulfonamide moieties” (2012).
In brackets after ≈: the same amount, converted by molar mass. Activity calls are given as the source filed them. No cut-off for these calls is given here.

Experiments:
THP-1 [1] = assay: Antiinflammatory activity in human THP1 cells assessed as inhibition of LPS-stimulated TNFalpha production at 1 uM incubated for 30 mins prior to LPS-challenge measured 24 hrs post LPS-challenge by ELISA; assay type: functional
THP-1 [2] = assay: Antiinflammatory activity in human THP1 cells assessed as inhibition of LPS-stimulated IL-6 production at 1 uM incubated for 30 mins prior to LPS-challenge measured 24 hrs post LPS-challenge by ELISA; assay type: functional
Aspergillus flavus [3] = assay: Antifungal activity against Aspergillus flavus MTCC 277 after 2 to 3 days by agar well diffusion method; assay type: functional
THP-1 [4] = assay: Antiinflammatory activity in human THP1 cells assessed as inhibition of LPS-stimulated TNFalpha production at 10 uM incubated for 30 mins prior to LPS-challenge measured 24 hrs post LPS challenge by ELISA; assay type: functional
Aspergillus flavus [5] = assay: Ratio of miconazole MIC to compound MIC for Aspergillus flavus MTCC 277; assay type: functional
Salmonella typhimurium [6] = assay: Antibacterial activity against Salmonella typhimurium MTCC 98 after 24 hrs by agar well diffusion method; assay type: functional, Salmonella enterica subsp. enterica serovar Typhimurium; settings: Salmonella enterica, MTCC 98, 24 h
Candida albicans [7] = assay: Antifungal activity against Candida albicans MTCC 227 after 2 to 3 days by agar well diffusion method; assay type: functional
Aspergillus niger [8] = assay: Antifungal activity against Aspergillus niger MTCC 281 after 2 to 3 days by agar well diffusion method; assay type: functional
Fusarium solani [9] = assay: Antifungal activity against Fusarium solani MTCC 350 after 2 to 3 days by agar well diffusion method; assay type: functional
Bacillus subtilis [10] = assay: Antibacterial activity against Bacillus subtilis MTCC 441 after 24 hrs by agar well diffusion method; assay type: functional; settings: MTCC 441, 24 h
Candida albicans [11] = assay: Ratio of miconazole MIC to compound MIC for Candida albicans MTCC 227; assay type: functional
THP-1 [12] = assay: Antiinflammatory activity in human THP1 cells assessed as inhibition of LPS-stimulated IL-6 production at 10 uM incubated for 30 mins prior to LPS-challenge measured 24 hrs post LPS-challenge by ELISA; assay type: functional
Escherichia coli [13] = assay: Antibacterial activity against Escherichia coli MTCC 443 after 24 hrs by agar well diffusion method; assay type: functional; settings: MTCC 443, 24 h
Staphylococcus aureus [14] = assay: Antibacterial activity against Staphylococcus aureus MTCC 96 after 24 hrs by agar well diffusion method; assay type: functional; settings: MTCC 96, 24 h
Staphylococcus aureus [15] = assay: Antibacterial activity against Staphylococcus aureus MTCC 96 up to 200 ug/mL after 24 hrs by agar well diffusion method; assay type: functional, organism-based
Bacillus subtilis [16] = assay: Antibacterial activity against Bacillus subtilis MTCC 441 up to 200 ug/mL after 24 hrs by agar well diffusion method; assay type: functional, organism-based
Escherichia coli [17] = assay: Antibacterial activity against Escherichia coli MTCC 443 up to 200 ug/mL after 24 hrs by agar well diffusion method; assay type: functional, organism-based
Aspergillus niger [18] = assay: Antifungal activity against Aspergillus niger MTCC 281 up to 200 ug/mL after 2 to 3 days by agar well diffusion method; assay type: functional, organism-based
Salmonella typhimurium [19] = assay: Antibacterial activity against Salmonella typhimurium MTCC 98 up to 200 ug/mL after 24 hrs by agar well diffusion method; assay type: functional, organism-based; settings: Salmonella enterica subsp. enterica serovar Typhimurium
Fusarium solani [20] = assay: Antifungal activity against Fusarium solani MTCC 350 up to 200 ug/mL after 2 to 3 days by agar well diffusion method; assay type: functional, organism-based
Candida albicans [21] = assay: Antifungal activity against Candida albicans MTCC 227 up to 200 ug/mL after 2 to 3 days by agar well diffusion method; assay type: functional, organism-based
Aspergillus flavus [22] = assay: Antifungal activity against Aspergillus flavus MTCC 277 up to 200 ug/mL after 2 to 3 days by agar well diffusion method; assay type: functional, organism-based
Fusarium solani [23] = assay: Ratio of miconazole MIC to compound MIC for Fusarium solani MTCC 350; assay type: functional
Escherichia coli [24] = assay: Ratio of ciprofloxacin MIC to compound MIC for Escherichia coli MTCC 443; assay type: functional
Salmonella typhimurium [25] = assay: Ratio of ciprofloxacin MIC to compound MIC for Salmonella typhimurium MTCC 98; assay type: functional, Salmonella enterica subsp. enterica serovar Typhimurium
Bacillus subtilis [26] = assay: Ratio of ciprofloxacin MIC to compound MIC for Bacillus subtilis MTCC 441; assay type: functional
Staphylococcus aureus [27] = assay: Ratio of ciprofloxacin MIC to compound MIC for Staphylococcus aureus MTCC 96; assay type: functional
Aspergillus niger [28] = assay: Ratio of miconazole MIC to compound MIC for Aspergillus niger MTCC 281; assay type: functional

MIC (Aspergillus flavus [3]) [µg/mL] | MIC (Salmonella typhimurium [6]) [µg/mL] | MIC (Candida albicans [7]) [µg/mL] | MIC (Aspergillus niger [8]) [µg/mL] | MIC (Fusarium solani [9]) [µg/mL] | MIC (Bacillus subtilis [10]) [µg/mL] | MIC (Escherichia coli [13]) [µg/mL] | MIC (Staphylococcus aureus [14]) [µg/mL] | SMILES | inhibition at 10 µM (THP-1 [4]) [%] | Ratio (Aspergillus flavus [5]) | inhibition at 10 µM (THP-1 [12]) [%] | Activity (Staphylococcus aureus [15]) | Activity (Bacillus subtilis [16]) | Activity (Escherichia coli [17]) | Activity (Aspergillus niger [18]) | Activity (Salmonella typhimurium [19]) | Activity (Fusarium solani [20]) | Activity (Candida albicans [21]) | Activity (Aspergillus flavus [22]) | Ratio (Fusarium solani [23]) | further results
– | – | – | – | – | – | – | – | C[C@@H]1C[C@H]2[C@@H]3CCC4=CC(=O)C=C[C@]4(C)[C@@]3(F)[C@@H](O)C[C@]2(C)[C@@]1(O)C(=O)CO [DEXAMETHASONE] | – | – | – | – | – | – | – | – | – | – | – | – | inhibition at 1 µM (THP-1 [1]): 76%; inhibition at 1 µM (THP-1 [2]): 84%
15 (≈ 28.5 µM) | 40 (≈ 76 µM) | 15 (≈ 28.5 µM) | 25 (≈ 47.5 µM) | 15 (≈ 28.5 µM) | 25 (≈ 47.5 µM) | 15 (≈ 28.5 µM) | 25 (≈ 47.5 µM) | COc1ccc(C2=NN(C(C)=O)C(c3ccc(NC(=O)Nc4ccc(C(F)(F)F)cc4)cc3)C2)cc1OC (stereo not drawn) | 3 | 1.3 | 21 | – | – | – | – | – | – | – | – | – | Ratio (Candida albicans [11]): 1.3
90 (≈ 185 µM) | – | 90 (≈ 185 µM) | – | 90 (≈ 185 µM) | – | – | – | COc1ccc(C2=NN(C(C)=O)C(c3ccc(NC(=O)Nc4ccc(C)c(C)c4)cc3)C2)cc1OC (stereo not drawn) | 18 | – | 30 | inactive | inactive | inactive | inactive | inactive | – | – | – | – | –
– | – | – | – | – | – | – | – | COc1ccc(C2=NN(C(C)=O)C(c3ccc(NC(=S)Nc4ccc(C)cc4)cc3)C2)cc1OC (stereo not drawn) | 0 | – | 3 | inactive | inactive | inactive | inactive | inactive | inactive | inactive | inactive | – | –
– | – | – | – | – | – | – | – | COc1ccc(C2=NN(C(C)=O)C(c3ccc(NC(=S)Nc4cccc(C(F)(F)F)c4)cc3)C2)cc1OC (stereo not drawn) | 0 | – | 8 | inactive | inactive | inactive | inactive | inactive | inactive | inactive | inactive | – | –
– | – | – | – | – | – | 90 (≈ 183 µM) | – | COc1ccc(C2=NN(C(C)=O)C(c3ccc(NC(=O)Nc4cc(F)ccc4C)cc3)C2)cc1OC (stereo not drawn) | 28 | – | 31 | inactive | inactive | – | inactive | inactive | inactive | inactive | inactive | – | –
90 (≈ 177 µM) | – | 90 (≈ 177 µM) | – | 90 (≈ 177 µM) | 90 (≈ 177 µM) | – | – | COc1ccc(C2=NN(C(C)=O)C(c3ccc(NC(=S)Nc4ccc(Cl)cc4)cc3)C2)cc1OC (stereo not drawn) | 68 | – | 76 | inactive | – | inactive | inactive | inactive | – | – | – | – | –
15 (≈ 25.8 µM) | 15 (≈ 25.8 µM) | 40 (≈ 68.7 µM) | 15 (≈ 25.8 µM) | 10 (≈ 17.2 µM) | 10 (≈ 17.2 µM) | 10 (≈ 17.2 µM) | 15 (≈ 25.8 µM) | COc1ccc(C2=NN(C(C)=O)C(c3ccc(NS(=O)(=O)c4ccc(C(F)(F)F)cc4Cl)cc3)C2)cc1OC (stereo not drawn) | 38 | 1.5 | 55 | – | – | – | – | – | – | – | – | 1.3 | Ratio (Escherichia coli [24]): 1.5; Ratio (Salmonella typhimurium [25]): 1.3; Ratio (Bacillus subtilis [26]): 1.5; Ratio (Staphylococcus aureus [27]): 1.3
10 (≈ 16 µM) | 10 (≈ 16 µM) | 20 (≈ 31.9 µM) | 10 (≈ 16 µM) | 10 (≈ 16 µM) | 15 (≈ 23.9 µM) | 10 (≈ 16 µM) | 10 (≈ 16 µM) | COc1ccc(C2=NN(C(C)=O)C(c3ccc(NS(=O)(=O)c4ccc(C(F)(F)F)cc4Br)cc3)C2)cc1OC (stereo not drawn) | 0 | 2 | 8 | – | – | – | – | – | – | – | – | 1.5 | Ratio (Escherichia coli [24]): 1.5; Ratio (Salmonella typhimurium [25]): 2; Ratio (Staphylococcus aureus [27]): 2; Ratio (Aspergillus niger [28]): 1.5
10 (≈ 18.3 µM) | 25 (≈ 45.7 µM) | 35 (≈ 63.9 µM) | 20 (≈ 36.5 µM) | 10 (≈ 18.3 µM) | 55 (≈ 100 µM) | 35 (≈ 63.9 µM) | 70 (≈ 128 µM) | COc1ccc(C2=NN(C(C)=O)C(c3ccc(NS(=O)(=O)c4ccc(C(F)(F)F)cc4)cc3)C2)cc1OC (stereo not drawn) | 0 | 2 | 0 | – | – | – | – | – | – | – | – | 1.5 | –
